{"source": "patent US7163699B2", "about": "“Progestin co-micronized with a surfactant pharmaceutical composition comprising same methods for making same and uses thereof” (Laboratories Besins International, priority 2001, dated 2007)", "origin": "cited, not measured here", "settings": "co-micronization with sodium lauryl sulfate or a sucrose ester of stearic acid"}
{"smiles": "O=C1NC(=O)C(c2ccccc2)(c2ccccc2)N1", "note": "[phenitoin]", "values": [{"measurement": "solubility of phenitoin", "value": "not improved"}]}
